Results from US7118895B2, “Process for producing aglycon by using diglycosidase and flavor-improved food containing the aglycon and converting agent to be used in the process” (Amano Enzyme Inc., priority 2000, dated 2006).

Tested on: Crude diglycosidase
Test: Examination of temperature in the conversion into isoflavone aglycons by diglycosidase using soybean materials
Type: biochemical, Penicillium multicolor IAM7153
Parameters: Decomposition efficiency of glycitin family in roasted soy flour / Decomposition efficiency of daidzin family in roasted soy flour / Decomposition efficiency of genistin family in soymilk / Decomposition efficiency of daidzin family in soymilk / Decomposition efficiency of glycitin family in defatted soybean / Decomposition efficiency of daidzin family in defatted soybean: concentration or dose not given beside the values
Description: Into 400 μL of 20 mM acetate buffer of pH 4.0 was suspended 50 mg of each of various soybean materials (roasted soy flour (manufactured by Fuji Shokuryo K.K.), soymilk (manufactured by Gitoh Shokuhin K.K.), defatted soybean (manufactured by Fuji Seiyu K.K.), concentrated soybean protein (manufactured by Fuji Seiyu K.K.)), whereby a substrate solution was prepared. Crude diglycosidase was diluted with 20 mM acetate buffer of pH 4.0 to be the glycosidase activity of 1.88 AU/mL. Fifty μL of the enzyme solution was mixed with the substrate solution and the whole was reacted at 80, 65, 55, 45, 37, or 30° C. at the total volume of 500 μL. To the reaction mixture was added 700 μL of ethanol after 0, 1, 3, and 6 hours of the reaction. After stirring and ultrasonication, the mixture was subjected to centrifugal separation at 15,000 rpm and 4° C. for 10 minutes. The supernatant was filtered through a filter and the existence of isoflavone glycosides and aglycon isoflavones contained in the reaction mixture was detected by HLPC.

[1] = 30° C., heat treatment of enzyme no, reaction time 0 h
[2] = 30° C., heat treatment of enzyme no, reaction time 1 h
[3] = 30° C., heat treatment of enzyme no, reaction time 3 h
[4] = 30° C., heat treatment of enzyme no, reaction time 6 h
[5] = 30° C., heat treatment of enzyme yes, reaction time 6 h
[6] = 45° C., heat treatment of enzyme no, reaction time 0 h
[7] = 45° C., heat treatment of enzyme no, reaction time 1 h
[8] = 45° C., heat treatment of enzyme no, reaction time 3 h
[9] = 45° C., heat treatment of enzyme no, reaction time 6 h
[10] = 45° C., heat treatment of enzyme yes, reaction time 6 h
[11] = 45 °C, heat treatment of enzyme: no, 0 h
[12] = 45 °C, heat treatment of enzyme: no, 1 h
[13] = 45 °C, heat treatment of enzyme: no, 3 h
[14] = 45 °C, heat treatment of enzyme: no, 6 h
[15] = 45 °C, heat treatment of enzyme: yes, 6 h
[16] = 55° C., heat treatment of enzyme no, reaction time 0 h
[17] = 55° C., heat treatment of enzyme no, reaction time 1 h
[18] = 55° C., heat treatment of enzyme no, reaction time 3 h
[19] = 55° C., heat treatment of enzyme no, reaction time 6 h
[20] = 55° C., heat treatment of enzyme yes, reaction time 6 h
[21] = 55 °C, heat treatment of enzyme: no, 0 h
[22] = 55 °C, heat treatment of enzyme: no, 1 h
[23] = 55 °C, heat treatment of enzyme: no, 3 h
[24] = 55 °C, heat treatment of enzyme: no, 6 h
[25] = 55 °C, heat treatment of enzyme: yes, 6 h
[26] = 65° C., heat treatment of enzyme no, reaction time 0 h
[27] = 65° C., heat treatment of enzyme no, reaction time 1 h
[28] = 65° C., heat treatment of enzyme no, reaction time 3 h
[29] = 65° C., heat treatment of enzyme no, reaction time 6 h
[30] = 65° C., heat treatment of enzyme yes, reaction time 6 h
[31] = 65 °C, heat treatment of enzyme: no, 0 h
[32] = 65 °C, heat treatment of enzyme: no, 1 h
[33] = 65 °C, heat treatment of enzyme: no, 3 h
[34] = 65 °C, heat treatment of enzyme: no, 6 h
[35] = 65 °C, heat treatment of enzyme: yes, 6 h
[36] = 80° C., heat treatment of enzyme no, reaction time 0 h
[37] = 80° C., heat treatment of enzyme no, reaction time 1 h
[38] = 80° C., heat treatment of enzyme no, reaction time 3 h
[39] = 80° C., heat treatment of enzyme no, reaction time 6 h
[40] = 80° C., heat treatment of enzyme yes, reaction time 6 h
[41] = 80 °C, heat treatment of enzyme: no, 0 h
[42] = 80 °C, heat treatment of enzyme: no, 1 h
[43] = 80 °C, heat treatment of enzyme: no, 3 h
[44] = 80 °C, heat treatment of enzyme: no, 6 h
[45] = 80 °C, heat treatment of enzyme: yes, 6 h

O=C(O)CC(=O)OC[C@H]1O[C@@H](Oc2ccc3c(=O)c(-c4ccc(O)cc4)coc3c2)[C@H](O)[C@@H](O)[C@@H]1O [malonyldaidzin, 6″-O-malonyldaidzin]
Decomposition efficiency of daidzin family in concentrated soybean protein [1]: not detected
Decomposition efficiency of daidzin family in defatted soybean [1]: 43.3%
Decomposition efficiency of daidzin family in concentrated soybean protein [2]: not detected
Decomposition efficiency of daidzin family in defatted soybean [2]: 46.6%
Decomposition efficiency of daidzin family in concentrated soybean protein [3]: not detected
Decomposition efficiency of daidzin family in defatted soybean [3]: 45.2%
Decomposition efficiency of daidzin family in concentrated soybean protein [4]: not detected
Decomposition efficiency of daidzin family in defatted soybean [4]: 45.1%
Decomposition efficiency of daidzin family in concentrated soybean protein [5]: not detected
Decomposition efficiency of daidzin family in defatted soybean [5]: 45.4%
Decomposition efficiency of daidzin family in soymilk (30 °C, heat treatment of enzyme: no, 0 h): 56.8%
Decomposition efficiency of daidzin family in soymilk (30 °C, heat treatment of enzyme: no, 1 h): 58.2%
Decomposition efficiency of daidzin family in soymilk (30 °C, heat treatment of enzyme: no, 3 h): 52.8%
Decomposition efficiency of daidzin family in soymilk (30 °C, heat treatment of enzyme: no, 6 h): 46.2%
Decomposition efficiency of daidzin family in soymilk (30 °C, heat treatment of enzyme: yes, 6 h): 56.1%
Decomposition efficiency of daidzin family in roasted soy flour (35 °C, heat treatment of enzyme: no, 0 h): not detected
Decomposition efficiency of daidzin family in roasted soy flour (35 °C, heat treatment of enzyme: no, 1 h): not detected
Decomposition efficiency of daidzin family in roasted soy flour (35 °C, heat treatment of enzyme: no, 3 h): not detected
Decomposition efficiency of daidzin family in roasted soy flour (35 °C, heat treatment of enzyme: no, 6 h): not detected
Decomposition efficiency of daidzin family in roasted soy flour (35 °C, heat treatment of enzyme: yes, 6 h): not detected
Decomposition efficiency of daidzin family in concentrated soybean protein [6]: not detected
Decomposition efficiency of daidzin family in defatted soybean [6]: 43.3%
Decomposition efficiency of daidzin family in concentrated soybean protein [7]: not detected
Decomposition efficiency of daidzin family in defatted soybean [7]: 45.5%
Decomposition efficiency of daidzin family in concentrated soybean protein [8]: not detected
Decomposition efficiency of daidzin family in defatted soybean [8]: 43.7%
Decomposition efficiency of daidzin family in concentrated soybean protein [9]: not detected
Decomposition efficiency of daidzin family in defatted soybean [9]: 41.7%
Decomposition efficiency of daidzin family in concentrated soybean protein [10]: not detected
Decomposition efficiency of daidzin family in defatted soybean [10]: 44.3%
Decomposition efficiency of daidzin family in roasted soy flour [11]: not detected
Decomposition efficiency of daidzin family in soymilk [11]: 57.2%
Decomposition efficiency of daidzin family in roasted soy flour [12]: not detected
Decomposition efficiency of daidzin family in soymilk [12]: 50.2%
Decomposition efficiency of daidzin family in roasted soy flour [13]: not detected
Decomposition efficiency of daidzin family in soymilk [13]: 41.1%
Decomposition efficiency of daidzin family in roasted soy flour [14]: not detected
Decomposition efficiency of daidzin family in soymilk [14]: 30.2%
Decomposition efficiency of daidzin family in roasted soy flour [15]: not detected
Decomposition efficiency of daidzin family in soymilk [15]: 55.8%
Decomposition efficiency of daidzin family in concentrated soybean protein [16]: not detected
Decomposition efficiency of daidzin family in defatted soybean [16]: 43.3%
Decomposition efficiency of daidzin family in concentrated soybean protein [17]: not detected
Decomposition efficiency of daidzin family in defatted soybean [17]: 45.0%
Decomposition efficiency of daidzin family in concentrated soybean protein [18]: not detected
Decomposition efficiency of daidzin family in defatted soybean [18]: 42.7%
Decomposition efficiency of daidzin family in concentrated soybean protein [19]: not detected
Decomposition efficiency of daidzin family in defatted soybean [19]: 40.3%
Decomposition efficiency of daidzin family in concentrated soybean protein [20]: not detected
Decomposition efficiency of daidzin family in defatted soybean [20]: 44.1%
Decomposition efficiency of daidzin family in roasted soy flour [21]: not detected
Decomposition efficiency of daidzin family in soymilk [21]: 57.3%
Decomposition efficiency of daidzin family in roasted soy flour [22]: not detected
Decomposition efficiency of daidzin family in soymilk [22]: 50.9%
Decomposition efficiency of daidzin family in roasted soy flour [23]: not detected
Decomposition efficiency of daidzin family in soymilk [23]: 41.1%
Decomposition efficiency of daidzin family in roasted soy flour [24]: not detected
Decomposition efficiency of daidzin family in soymilk [24]: 31.1%
Decomposition efficiency of daidzin family in roasted soy flour [25]: not detected
Decomposition efficiency of daidzin family in soymilk [25]: 50.8%
Decomposition efficiency of daidzin family in concentrated soybean protein [26]: not detected
Decomposition efficiency of daidzin family in defatted soybean [26]: 43.3%
Decomposition efficiency of daidzin family in concentrated soybean protein [27]: not detected
Decomposition efficiency of daidzin family in defatted soybean [27]: 44.7%
Decomposition efficiency of daidzin family in concentrated soybean protein [28]: not detected
Decomposition efficiency of daidzin family in defatted soybean [28]: 41.6%
Decomposition efficiency of daidzin family in concentrated soybean protein [29]: not detected
Decomposition efficiency of daidzin family in defatted soybean [29]: 37.3%
Decomposition efficiency of daidzin family in concentrated soybean protein [30]: not detected
Decomposition efficiency of daidzin family in defatted soybean [30]: 35.2%
Decomposition efficiency of daidzin family in roasted soy flour [31]: not detected
Decomposition efficiency of daidzin family in soymilk [31]: 56.8%
Decomposition efficiency of daidzin family in roasted soy flour [32]: not detected
Decomposition efficiency of daidzin family in soymilk [32]: 51.7%
Decomposition efficiency of daidzin family in roasted soy flour [33]: not detected
Decomposition efficiency of daidzin family in soymilk [33]: 43.9%
Decomposition efficiency of daidzin family in roasted soy flour [34]: not detected
Decomposition efficiency of daidzin family in soymilk [34]: 35.3%
Decomposition efficiency of daidzin family in roasted soy flour [35]: not detected
Decomposition efficiency of daidzin family in soymilk [35]: 42.4%
Decomposition efficiency of daidzin family in concentrated soybean protein [36]: not detected
Decomposition efficiency of daidzin family in defatted soybean [36]: 43.3%
Decomposition efficiency of daidzin family in concentrated soybean protein [37]: not detected
Decomposition efficiency of daidzin family in defatted soybean [37]: 39.8%
Decomposition efficiency of daidzin family in concentrated soybean protein [38]: not detected
Decomposition efficiency of daidzin family in defatted soybean [38]: 28.8%
Decomposition efficiency of daidzin family in concentrated soybean protein [39]: not detected
Decomposition efficiency of daidzin family in defatted soybean [39]: 17.8%
Decomposition efficiency of daidzin family in concentrated soybean protein [40]: not detected
Decomposition efficiency of daidzin family in defatted soybean [40]: 17.4%
Decomposition efficiency of daidzin family in roasted soy flour [41]: not detected
Decomposition efficiency of daidzin family in soymilk [41]: 57.2%
Decomposition efficiency of daidzin family in roasted soy flour [42]: not detected
Decomposition efficiency of daidzin family in soymilk [42]: 50.8%
Decomposition efficiency of daidzin family in roasted soy flour [43]: not detected
Decomposition efficiency of daidzin family in soymilk [43]: 36.4%
Decomposition efficiency of daidzin family in roasted soy flour [44]: not detected
Decomposition efficiency of daidzin family in soymilk [44]: 23.0%
Decomposition efficiency of daidzin family in roasted soy flour [45]: not detected
Decomposition efficiency of daidzin family in soymilk [45]: 21.8%
